Assay results reported in patent publication US20050222269A1, “Use of deprenyl compounds to treat viral infections and reduce tissue damage associated therewith” (priority 1998, published 2005).

What was measured:
[1] = Stability of deprenyl as a function of pH of the medium; format: physicochemical; details: pH about 3-5 versus pH about 7
Text: The stability of deprenyl can be affected by the pH of the medium in which the deprenyl is formulated. […] Therefore, when formulating a deprenyl compound in a pharmaceutical composition, it is preferred that the deprenyl compound be maintained at a suitable pH. In preferred embodiments, a pharmaceutical composition of the invention has a pH in the range of about 3 to about 5, more preferably about 3 to about 4. Furthermore, ethyl alcohol is a preferred solvent for improving stability of deprenyl. Thus, in certain embodiments, alcoholic or aqueous alcoholic media are preferred for the pharmaceutical compositions of the invention.

[2] = system: huBLCL/env cells; assay: CTL-mediated killing (51Cr release) of huBLCL/env cells expressing SIV env; format: cell-based, human; details: for Percent Specific Lysis: hu BLCL/env target cells, compound 1.0 nM added at beginning of 5 hour assay, 51Cr release
[3] = system: rh BLCL/env cells; assay: CTL-mediated killing (51Cr release) of rh BLCL/env cells expressing SIV env; format: cell-based, rhesus monkey; details: for Effect on CTL-mediated cell killing / lysis (in words): rh BLCL/env cells; for Percent Specific Lysis: rh BLCL/env target cells, compound 1.0 nM added at beginning of 5 hour assay, 51Cr release
[4] = system: ClR/env cells; assay: CTL-mediated killing (51Cr release) of C1R/env cells expressing SIV env; format: cell-based, human; details: for Effect on CTL-mediated cell killing / lysis (in words): C1R/env cells; for Percent Specific Lysis: ClR/env target cells, compound 1.0 nM added at beginning of 5 hour assay, 51Cr release
[5] = system: Hela T4/env cells; assay: CTL-mediated killing (51Cr release) of Hela T4/env cells expressing SIV env; format: cell-based; details: for Effect on CTL-mediated cell killing / lysis (in words): Hela T4/env cells; for Percent Specific Lysis: Hela T4/env target cells, compound 1.0 nM added at beginning of 5 hour assay, 51Cr release
[6] = molecular target: GAPDH (Homo sapiens, UniProt P04406); format: biochemical; details: gel filtration of GAPDH incubated with DMD
Chain of GAPDH (P04406 whole entry, species assumed): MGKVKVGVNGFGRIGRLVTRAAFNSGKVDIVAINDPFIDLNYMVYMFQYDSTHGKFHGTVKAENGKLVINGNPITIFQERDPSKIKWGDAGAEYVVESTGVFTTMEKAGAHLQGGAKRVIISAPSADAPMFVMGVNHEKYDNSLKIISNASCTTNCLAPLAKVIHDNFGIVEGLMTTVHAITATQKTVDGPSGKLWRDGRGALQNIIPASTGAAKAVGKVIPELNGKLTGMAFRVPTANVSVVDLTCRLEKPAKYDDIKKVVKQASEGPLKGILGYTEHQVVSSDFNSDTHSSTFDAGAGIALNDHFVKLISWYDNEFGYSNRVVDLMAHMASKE

Structure (SMILES)	Stability depending on pH [1]	Percent Specific Lysis [2]	Effect on CTL-mediated cell killing / lysis (in words) ([2]; huBLCL/env cells)	Effect on CTL-mediated cell killing / lysis (in words) [3]	Percent Specific Lysis [3]	Effect on CTL-mediated cell killing / lysis (in words) [4]	Percent Specific Lysis [4]	Effect on CTL-mediated cell killing / lysis (in words) [5]	Percent Specific Lysis [5]	Effect on association of GAPDH monomers (tetrameric vs dimeric form) [6]
C#CCN(C)C(C)Cc1ccccc1 (stereo not drawn) [deprenyl, N,α-dimethyl-N-2-propynylphenethylamine]	more stable at a pH in the range of about 3-5 than at a pH of about 7	–	–	–	–	–	–	–	–	–
C#CCNC(C)Cc1ccccc1 (single isomer, unassigned; (-)) [Desm., (−)-desmethyldeprenyl]	–	−1.85%	reduced cell killing in all four cell lines	reduced cell killing in all four cell lines	4.34%	reduced cell killing in all four cell lines	6.98%	reduced cell killing in all four cell lines	30.65%	inducing the conversion of GAPDH from the tetrameric form to the dimeric form
CC(=O)N[C@@H](CS)C(=O)O [NAC, N-acetyl cysteine]	–	13.41%	–	effective in reducing lysis	6.32%	effective in reducing lysis	29.12%	effective in reducing lysis	30.74%	–
